Experimental findings from doi:10.1101/2024.08.19.608619, “Discovery of potent SARS-CoV-2 nsp3 macrodomain inhibitors uncovers lack of translation to cellular antiviral response” (bioRxiv, 2024) are described below.

For data set [1], the system named is SARS-CoV-2. Nature of the data set: Antiviral effect in iPSC-derived pneumocyte system. Type of data set: cell-based. To be noted: iPSC pneumocytes SARS-CoV-2 antiviral effect; for perc_max_measured: maximum measured response of dose series; for perc_min_measured: minimum measured response of dose series.
Data set [2] in a line: In vitro kinetic solubility.
Data set [3] can be described thus: Hepatic microsomal stability, MLM. Type of data set: in vitro ADME.
The test system of data set [4] is SARS-CoV-2, isolate USA-WA1/2020. Nature of the data set: microbe, parasite or virus in culture. Particulars: HeLa-ACE2 SARS-CoV-2 antiviral effect without P-gp inhibitor; for perc_max_measured: maximum measured response of dose series; for EC50: read-out: ec50; for EC90: read-out: ec90. Format: cell-based.
Data set [5] in a line: Permeability Papp (AB) MDR1/MDCKII. To be noted: In vitro MDR1-MDCKII permeability, mean; for papp_a_to_b_mean: A to B; for perc_recovery_a_to_b_mean: recovery A to B.
Data set [6] is described as follows: LogD. Particulars: pH 7.4.
The subject of data set [7] is HeLa-ACE2 cells. Particulars: for perc_max_measured: highest measured response of the dose series; for perc_min_measured: lowest measured response of the dose series.
Data set [8] has as its system iPSC pneumocytes. Briefly: iPSC pneumocytes cytotoxicity. Format: cell-based. To be noted: for perc_max_measured: highest measured response of the dose series; for perc_min_measured: lowest measured response of the dose series. From the text:
Supplement media-1.zip/Cytotoxicity.csv, table | column: cc10; cc50; perc_min_measured; perc_max_measured

A short description of data set [9]: in vitro. Particulars: human, ipsc-derived pneumocytes, read-out: 50.0. Details: Cytotoxicity in iPSC-derived pneumocytes, CC50. From the text: Finally, we consider the hypothesis that interferon response triggers ADP-ribosylation, thus profiling the compounds in enhanced and physiologically relevant interferon environments could reveal detectable antiviral effects. […] Furthermore, HeLa-ACE2 cells, and all cancerous cell lines, display defective innate immune response ([1]). As such, we also assess our compound in a primary-like iPSC-derived pneumocyte system (Figure 7C), showing likewise a lack of antiviral activity in this physiologically relevant innate immunity system.

Data set [10] is described as follows: Hepatic microsomal stability, HLM. Format: in vitro ADME, human. Particulars: In vitro human liver microsomal stability; for perc_remaining_no_cofactor: no cofactor; for microsomal CLint: liver microsomes. Background: Liver microsomes are vesicles of endoplasmic reticulum, rich in cytochrome P450 enzymes.
Data set [11] deals with T1, SARS-CoV-2 nsp3-mac1 (Severe acute respiratory syndrome coronavirus 2, UniProt P0DTD1). Nature of the data set: biochemical.
In data set [12] the target is T1, SARS-CoV-2 nsp3-mac1. Nature of the data set: biochemical. The arrangement: SARS-CoV-2 nsp3 macrodomain TR-FRET single point, per cent inhibition, n=2. Particulars: read-out: perc_inhibition_mean, batch_name=ASAP-0000132-001.
Data set [13] concerns the target T1, SARS-CoV-2 nsp3-mac1. Briefly: biochemical. Particulars: SARS-CoV-2 nsp3 macrodomain TR-FRET single point, concentration 50.0 uM. Format: biochemical.
Data set [14] concerns MDR1. Briefly: Permeability Papp (AB) MDR1/MDCKII. Particulars: dog, MDCK-MDR1, papp_a_to_b_mean, In vitro MDR1-MDCKII permeability, A to B, mean.
The mark [15] stands for this setting: In vitro kinetic solubility, ph 7.4.
The mark [16] stands for this setting: In vitro mouse liver microsomal stability.
[17] abbreviates: In vitro mouse liver microsomal stability, no cofactor.
[18] abbreviates: protocol HeLa-ACE2 cytotoxicity.
The mark [19] stands for this setting: In vitro mouse liver microsomal stability; no cofactor.
Where [20] appears, read: protocol iPSC pneumocytes cytotoxicity.

≈ marks a conversion by molar mass, not a printed value. Where “and” joins values, the source holds several entries; their conditions need not be identical. Equal values may be shown once. Read-outs that look alike come from different tables or passages of the source. A value given as a limit tells only on which side of the number the result lay.

The term EC50 denotes the concentration giving half of the maximal effect. A word on the EC90: it is the concentration needed for an effect of 90%. The term IC50 denotes the concentration at which inhibition is half-maximal. Broadly, the solubility is the concentration that dissolves in the medium under given conditions. Read a low solubility as little dissolved substance. The term microsomal CLint denotes the capacity of the preparation to metabolise the compound, expressed as a volume cleared per time. High values mean rapid turnover, low ones slow turnover. As usually defined, the Papp A→B is the apparent permeability from the apical to the basolateral side of a cell layer. Read a low Papp A→B as slow passage.

Take `CNC(=O)Cn1cc(-c2cc3c(N[C@H](c4ccc5c(c4)S(=O)(=O)CCC5)C(C)C)ncnc3[nH]2)cn1` (single isomer, unassigned) [ASAP-0011171]: in data set [1], the EC50 was over 50 µM, the EC90 was over 50 µM, the perc_max_measured was 106.027% and the perc_min_measured came to 60.326%. The same molecule displayed a solubility_mean in data set [2] (setting [15]) of 323 µM (≈ 164 µg/mL). Besides, in data set [3] (setting [16]), the clint worked out at 111.0 µL/min/mg, the perc_remaining came to 16.0% and the t_half is listed as 15.0 min. For the same molecule, in data set [3] (setting [17]), the perc_remaining_no_cofactor was found to be 96.0%. Further, in [4], the perc_max_measured is 108.143%, the EC50 was over 20 µM and the EC90 was over 20 µM. In addition, in [4] (minimum measured response of dose series), the perc_min_measured came out at 92.194%. In data set [5], this molecule showed a papp_a_to_b_mean of 0.396 ×10⁻⁶ cm/s and a perc_recovery_a_to_b_mean of 65.1%. The same molecule came in with a logd in data set [6] (In vitro LogD) of 2.4. Moreover, in [7] (setting [18]), the CC50 was over 20 µM, the cc10 is over 20.0 µM, the perc_max_measured is 102.722% and the perc_min_measured came out at 92.936%. In addition, in data set [8], the CC50 is over 50 µM, the cc10 is over 50.0 µM, the perc_max_measured is reported as 98.842% and the perc_min_measured is given as 89.646%. Further, in data set [9] (ASAP-0008327-001=ASAP-0011171-001), the CC50 is over 50 µM. Further, in [10], the clint was 92.0 µL/min/mg, the perc_remaining was 23.0%, the t_half is 18.1 min and the perc_remaining_no_cofactor is 101.0%.

`O=C(Nc1ccccc1)Nc1ccc(C(=O)NC2c3cccc(O)c3CC2C(=O)O)cc1` (stereo not shown) [ASAP-0000132] yielded a solubility_mean in data set [2] (setting [15]) of 319 µM (≈ 138 µg/mL). Moreover, in [3] (setting [16]), the clint worked out at 2.0 µL/min/mg, the perc_remaining turned out to be 111.0% and the t_half came to 1066.4 min. Further, the perc_remaining_no_cofactor in data set [3] (setting [19]) was 99.0%. Moreover, in data set [5], the papp_a_to_b_mean came out at 0.7 ×10⁻⁶ cm/s and the perc_recovery_a_to_b_mean came to 91.0%. Moreover, the logd in [6] (In vitro LogD) was 0.12. The same molecule showed a hill_slope in data set [11] (TR-FRET dose response curve fit) of 1.06. This molecule came in with a perc_max_measured in data set [11] (TR-FRET dose response, highest measured response) of 99.438%. Moreover, the perc_min_measured in data set [11] (TR-FRET dose response, lowest measured response) is recorded as -1.931%. In data set [11] (TR-FRET dose response, supplement), this molecule came in with a pic50 of 5.991. In addition, the IC50 in [11] (TR-FRET dose response, supplement, read-out: ic50) was 1.02 µM. Further, the inhibition at 50 µM in data set [12] came to 99.9%. Besides, in data set [13], the perc_inhibition_mean was determined as 99.903%. For the same molecule, in data set [10], the clint turned out to be 9.0 µL/min/mg, the perc_remaining was determined as 123.0%, the t_half amounted to 187.2 min and the perc_remaining_no_cofactor is 96.0%.

`CC(C)C(Nc1ncnc2[nH]ccc12)c1ccc2c(c1)NC(=O)CO2` (stereo not shown) [ASAP-0008431]: the solubility_mean in data set [2] (setting [15]) was 374 µM (≈ 126 µg/mL). In data set [2] (pH 7.4, solubility_mean, In vitro kinetic solubility, ph 7.4), this molecule displayed a solubility of 389 µM (≈ 131 µg/mL). The clint in data set [3] (setting [16]) worked out at 78.0 µL/min/mg; in [10] it was 31.0 µL/min/mg. The perc_remaining was 26.0% and 27.0% in [3] (setting [16]); 73.0% and 56.0% in [10]. The t_half in [3] (setting [16]) was 20.9 min and 21.4 min; in data set [10] it was 79.0 min and 54.3 min. For the same molecule, the perc_remaining_no_cofactor in [3] (setting [17]) is 110.0%; in [3] (setting [19]), 93.0%; in [10], 105.0% and 92.0%. Moreover, the microsomal CLint was 80 µL/min/mg in [3] (mouse, liver microsomes, In vitro mouse liver microsomal stability) and 21 µL/min/mg in data set [10] (human). In data set [5], the perc_recovery_a_to_b_mean was 86.0% and 98.9%. In data set [6] (pH 7.4, logd, In vitro LogD), this molecule came in with a logd of 2.2. In data set [11] (HTRF IC50, Figure 4A, racemic mixture), the half-inhibitory concentration (IC50) stood at 0.39 µM.

Turning to `CC(C)[C@@H](Nc1ncnc2[nH]c(C(N)=O)cc12)c1ccc2c(c1)OCCO2` [ASAP-0008438], in data set [1], the EC50 is over 50 µM, the EC90 was over 50 µM, the perc_max_measured turned out to be 162.718% and the perc_min_measured worked out at 51.066%. In data set [4], the perc_max_measured is 108.483% and 95.443%; the EC50 is over 20 µM; the EC90 was over 20 µM. In data set [7], this molecule showed a cc10 of under 0.082 µM and a cc50 of under 0.082 µM. Besides, in data set [7] (setting [18]), the perc_max_measured is 102.95% and 76.872%; the perc_min_measured was 63.007% and 58.0%. Moreover, in data set [8] (setting [20]), the CC50 is over 50 µM, the cc10 was over 50.0 µM, the perc_max_measured is on record as 107.376% and the perc_min_measured worked out at 74.883%. Besides, the CC50 in [9] (ASAP-0008327-001=ASAP-0008438-001) was over 50 µM.

The molecule `CNC(=O)Cn1cc(-c2cc3c(NC(c4ccc5c(c4)OCCO5)C(C)C)ncnc3[nH]2)cn1` (stereo not shown) [ASAP-0008565] had a solubility in data set [2] (pH 7.4) of 289 µM (≈ 133 µg/mL). In addition, the figures for the perc_remaining in data set [3] (setting [16]) and in data set [10] were 46.0% and 14.0%, respectively. Moreover, the t_half in data set [3] (setting [16]) is given as 35.7 min; in data set [10] it was 14.0 min. In addition, the perc_remaining_no_cofactor in [3] (setting [17]) was 90.0%; in [10], 92.0%. The microsomal CLint is 47 µL/min/mg in data set [3] (liver microsomes; In vitro mouse liver microsomal stability) and 119 µL/min/mg in [10]. In data set [14], the Papp A→B came to 1.94 ×10⁻⁶ cm/s. The molecule further came in with a perc_recovery_a_to_b_mean in data set [5] of 94.1%. In [6], this molecule showed a logd of 2.9. This molecule showed an IC50 in data set [11] (IC50, nsp3-mac1 activity, Figures 1-3 and text) of 0.25 µM. The “increase in potency relative to the starting point” value in data set [11] (relative to ASAP-000450) is listed as 10 x.
